Assay results taken from patent US9556201B2, “Bicyclic pyridines and analogs as sirtuin modulators” (GLAXOSMITHKLINE LLC, priority 2009, dated 2017).

Molecular target: T1, SIRT1 (Homo sapiens, UniProt Q96EB6)
T1 sequence (Q96EB6 1-747): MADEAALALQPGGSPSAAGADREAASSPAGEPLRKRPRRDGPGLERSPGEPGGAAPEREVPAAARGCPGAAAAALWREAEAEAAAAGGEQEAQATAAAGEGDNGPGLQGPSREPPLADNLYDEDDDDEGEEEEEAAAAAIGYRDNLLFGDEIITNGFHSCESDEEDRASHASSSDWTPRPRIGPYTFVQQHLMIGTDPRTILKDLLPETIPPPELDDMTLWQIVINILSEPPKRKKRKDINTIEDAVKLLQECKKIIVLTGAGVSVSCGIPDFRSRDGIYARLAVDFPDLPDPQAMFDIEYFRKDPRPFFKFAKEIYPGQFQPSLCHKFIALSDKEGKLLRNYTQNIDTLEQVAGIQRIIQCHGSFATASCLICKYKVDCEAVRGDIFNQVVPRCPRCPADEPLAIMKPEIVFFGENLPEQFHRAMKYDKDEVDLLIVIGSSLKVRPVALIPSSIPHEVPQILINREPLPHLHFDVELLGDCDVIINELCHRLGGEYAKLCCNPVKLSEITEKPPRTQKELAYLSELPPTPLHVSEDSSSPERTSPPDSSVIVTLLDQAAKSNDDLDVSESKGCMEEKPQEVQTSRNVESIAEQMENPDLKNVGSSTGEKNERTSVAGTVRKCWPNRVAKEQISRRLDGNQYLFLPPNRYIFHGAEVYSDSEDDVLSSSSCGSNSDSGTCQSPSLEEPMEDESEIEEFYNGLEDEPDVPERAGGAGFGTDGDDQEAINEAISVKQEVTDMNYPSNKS
Assay: Mass spectrometry based assay to identify modulators of SIRT1 activity (deacetylation of p53-based acetylated peptide substrate)
Type: biochemical
Conditions: for Emax: 25 min, SIRT1 activation, read-out: % FOLD ACT. (percent maximum fold activation)
Summary of the method: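 Deacetylation of a modified p53 acetyl-lysine peptide ([…], 5TMR-labelled, Nle for Met) by 10 nM N-His SIRT1 with 120 μM βNAD+, pH 8, 25 min, 25 °C. Substrate and product masses measured by MS after formic acid quench; nicotinamide defines maximal inhibition.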

| SMILES | EC1.5 (concentration giving 1.5-fold activation) | Emax |
| --- | --- | --- |
| CCN1CCCN(C(=O)Nc2ccc(F)cn2)c2nc(-c3cccc(Cl)c3)ccc21 [Compound 807] | > 25 µM | ≤ 200% |
| CCN1CCCN(C(=O)Nc2ccncc2F)c2nc(-c3cccc(Cl)c3)ccc21 [Compound 808] | 1 to 25 µM | > 200% |
| CCN1CCCN(C(=O)Nc2ccncn2)c2nc(-c3cccc(Cl)c3)ccc21 [Compound 809] | 1 to 25 µM | > 200% |
| O=C(Nc1ccncc1)N1CCCCc2ccc(-c3cccc(C(F)(F)F)c3)nc21 [Compound 810] | 1 to 25 µM | > 200% |
| COc1nccc(NC(=O)N2CCCCc3ccc(-c4cccc(C(F)(F)F)c4)nc32)n1 [Compound 811] | 1 to 25 µM | ≤ 200% |
| O=C(Nc1ccccn1)N1CCCCc2ccc(-c3cccc(C(F)(F)F)c3)nc21 [Compound 812] | 1 to 25 µM | ≤ 200% |
| O=C(Nc1ccccn1)N1CCC(F)(F)c2ccc(-c3cccc(C(F)(F)F)c3)nc21 [Compound 814, 4,4-difluoro-N-(pyridin-2-yl)-7-(3-(trifluoromethyl)phenyl)-3,4-dihydro-1,8-naphthyridine-1(2H)-carboxamide] | > 25 µM | ≤ 200% |
| O=C(Nc1ccncn1)N1CCCCc2ccc(-c3cccc(C(F)(F)F)c3)nc21 [Compound 815] | 1 to 25 µM | > 200% |
| O=C(Nc1ccc(F)cn1)N1CCCCc2ccc(-c3cccc(C(F)(F)F)c3)nc21 [Compound 816] | > 25 µM | ≤ 200% |
| O=C(Nc1ccncc1F)N1CCCCc2ccc(-c3cccc(C(F)(F)F)c3)nc21 [Compound 817] | 1 to 25 µM | > 200% |
| Cc1cccc(NC(=O)N2CCCCc3ccc(-c4cccc(C(F)(F)F)c4)nc32)n1 [Compound 818] | > 25 µM | ≤ 200% |
| O=C1CCCN(C(=O)Nc2ccccn2)c2nc(-c3cccc(C(F)(F)F)c3)ccc21 [Compound 819] | < 1 µM | > 200% |
| Cc1cc(NC(=O)N2CCCC(=O)c3ccc(-c4cccc(C(F)(F)F)c4)nc32)ccn1 [Compound 820] | < 1 µM | > 200% |
| O=C1CCCN(C(=O)Nc2ccncc2F)c2nc(-c3cccc(C(F)(F)F)c3)ccc21 [Compound 821] | 1 to 25 µM | > 200% |
| O=C(Nc1ncccc1F)N1CCC(F)(F)c2ccc(-c3cccc(C(F)(F)F)c3)nc21 [Compound 822] | 1 to 25 µM | ≤ 200% |
| Cc1cc(OCC(O)CO)nc(NC(=O)N2CCC(F)(F)c3ccc(-c4cccc(C(F)(F)F)c4)nc32)n1 (stereo not drawn) [Compound 824] | 1 to 25 µM | ≤ 200% |
| CC1(C)CCN(C(=O)Nc2ccncc2)c2nc(-c3cccc(C(F)(F)F)c3)ccc21 [Compound 826, 4,4-dimethyl-N-(pyridin-4-yl)-7-(3-(trifluoromethyl)phenyl)-3,4-dihydro-1,8-naphthyridine-1(2H)-carboxamide] | < 1 µM | > 200% |
| CC1(C)CCN(C(=O)Nc2ccccn2)c2nc(-c3cccc(C(F)(F)F)c3)ccc21 [Compound 827] | < 1 µM | > 200% |
| O=C1CCCN(C(=O)Nc2ccncc2)c2nc(-c3cccc(C(F)(F)F)c3)ccc21 [Compound 828] | 1 to 25 µM | > 200% |
| O=C1CCCN(C(=O)Nc2cccnc2)c2nc(-c3cccc(C(F)(F)F)c3)ccc21 [Compound 829] | 1 to 25 µM | > 200% |
| CC1(C)CCN(C(=O)Nc2ccncc2)c2nc(-c3cccc(Cl)c3)ccc2C1=O [Compound 832] | 1 to 25 µM | ≤ 200% |
| CC1(C)CCN(C(=O)Nc2cccnc2)c2nc(-c3cccc(Cl)c3)ccc2C1=O [Compound 833] | > 25 µM | ≤ 200% |
| Cc1cnccc1NC(=O)N1CCC(C)(C)c2ccc(-c3cccc(C(F)(F)F)c3)nc21 [Compound 834, 4,4-dimethyl-N-(3-methylpyridin-4-yl)-7-(3-(trifluoromethyl)phenyl)-3,4-dihydro-1,8-naphthyridine-1(2H)-carboxamide] | 1 to 25 µM | ≤ 200% |
| CC1(C)CCN(C(=O)Nc2cncnc2)c2nc(-c3cccc(C(F)(F)F)c3)ccc21 [Compound 835] | 1 to 25 µM | > 200% |

| SMILES | EC1.5 (concentration giving 1.5-fold activation) | Emax |
| --- | --- | --- |
| CC1(C)CCN(C(=O)Nc2ccncc2F)c2nc(-c3cccc(Cl)c3)ccc2C1=O [Compound 836, 2-(3-chlorophenyl)-N-(3-fluoropyridin-4-yl)-6,6-dimethyl-5-oxo-7,8-dihydro-5H-pyrido[2,3-b]azepine-9(6H)-carboxamide] | 1 to 25 µM | ≤ 200% |
| Cc1csc(NC(=O)N2CCC(C)(C)C(=O)c3ccc(-c4cccc(Cl)c4)nc32)n1 [Compound 837] | 1 to 25 µM | ≤ 200% |
| O=C(Nc1cccc(OCC(O)CO)c1)N1CCC(F)(F)c2ccc(-c3cccc(C(F)(F)F)c3)nc21 (stereo not drawn) [Compound 841] | < 1 µM | > 200% |
| CC1(C)CCN(C(=O)Nc2ncccc2F)c2nc(-c3cccc(C(F)(F)F)c3)ccc21 [Compound 842] | 1 to 25 µM | ≤ 200% |
| CC1(C)CCN(C(=O)Nc2ccc(F)cn2)c2nc(-c3cccc(C(F)(F)F)c3)ccc21 [Compound 843] | 1 to 25 µM | ≤ 200% |
| Cc1cc(OCC(O)CO)nc(NC(=O)N2CCC(C)(C)c3ccc(-c4cccc(C(F)(F)F)c4)nc32)n1 (stereo not drawn) [Compound 844] | 1 to 25 µM | > 200% |
| CC1(C)CCN(C(=O)Nc2cc(OCC(O)CO)ccn2)c2nc(-c3cccc(C(F)(F)F)c3)ccc21 (stereo not drawn) [Compound 846] | < 1 µM | > 200% |
| CC1(C)CCN(C(=O)Nc2ccncc2F)c2nc(-c3cccc(C(F)(F)F)c3)ccc21 [Compound 847] | > 25 µM | ≤ 200% |
| O=C(Nc1cncnc1)N1CCCOc2ccc(-c3cccc(Cl)c3)nc21 [Compound 852] | 1 to 25 µM | > 200% |
| O=C(Nc1cncc(F)c1)N1CCCOc2ccc(-c3cccc(Cl)c3)nc21 [Compound 853] | 1 to 25 µM | > 200% |
| COc1nccc(NC(=O)N2CCCOc3ccc(-c4cccc(Cl)c4)nc32)n1 [Compound 854] | 1 to 25 µM | > 200% |
| Cc1cnccc1NC(=O)N1CCCOc2ccc(-c3cccc(Cl)c3)nc21 [Compound 855] | 1 to 25 µM | ≤ 200% |
| O=C(Nc1ccncc1)N1CCCOc2ccc(-c3cccc(Cl)c3)nc21 [Compound 856] | 1 to 25 µM | > 200% |
| Cc1cc(C)nc(NC(=O)N2CCCOc3ccc(-c4cccc(Cl)c4)nc32)c1 [Compound 857] | > 25 µM | ≤ 200% |
| O=C(Nc1cncc(OCC(O)CO)n1)N1CCCOc2ccc(-c3cccc(Cl)c3)nc21 (stereo not drawn) [Compound 858] | < 1 µM | > 200% |
| Cc1cc(OCC(O)CO)nc(NC(=O)N2CCCOc3ccc(-c4cccc(Cl)c4)nc32)n1 (stereo not drawn) [Compound 859] | 1 to 25 µM | > 200% |
| Cc1cc(NC(=O)N2CCCOc3ccc(-c4cccc(Cl)c4)nc32)ncc1F [Compound 863] | 1 to 25 µM | ≤ 200% |
| O=C(Nc1ncccn1)N1CCCOc2ccc(-c3cccc(Cl)c3)nc21 [Compound 865] | 1 to 25 µM | > 200% |
| O=C(Nc1cnccn1)N1CCCOc2ccc(-c3cccc(Cl)c3)nc21 [Compound 866] | 1 to 25 µM | > 200% |
| O=C(Nc1cccnn1)N1CCCOc2ccc(-c3cccc(Cl)c3)nc21 [Compound 867] | 1 to 25 µM | > 200% |
| Cc1cccnc1NC(=O)N1CCCOc2ccc(-c3cccc(Cl)c3)nc21 [Compound 871] | > 25 µM | ≤ 200% |
| COc1cc(NC(=O)N2CCCOc3ccc(-c4cccc(Cl)c4)nc32)ncn1 [Compound 872] | < 1 µM | > 200% |
| Cc1nn(C)c(C)c1NC(=O)N1CCCOc2ccc(-c3cccc(Cl)c3)nc21 [Compound 879] | > 25 µM | ≤ 200% |
| O=C(Nc1ccnc2cccnc12)N1CCCOc2ccc(-c3cccc(Cl)c3)nc21 [Compound 884] | 1 to 25 µM | > 200% |
